These results are taken from ChEMBL document CHEMBL1139355, “Selectively targeting T- and B-cell lymphomas: a benzothiazole antagonist of alpha4beta1 integrin” (J Med Chem, 2009).

A word on the IC50: it is the concentration needed to halve the response being measured.

In the experiment the target is Integrin alpha-4/beta-1 (Homo sapiens, UniProt P05556+P13612). The experiment is described as follows: Inhibition of human integrin alpha-4-beta-1-mediated MOLT4 cell adhesion to biotin-conjugated CS-1 peptide. In kind it is cell-based, MOLT-4.
Sequence of Integrin alpha-4/beta-1 (P05556 whole entry): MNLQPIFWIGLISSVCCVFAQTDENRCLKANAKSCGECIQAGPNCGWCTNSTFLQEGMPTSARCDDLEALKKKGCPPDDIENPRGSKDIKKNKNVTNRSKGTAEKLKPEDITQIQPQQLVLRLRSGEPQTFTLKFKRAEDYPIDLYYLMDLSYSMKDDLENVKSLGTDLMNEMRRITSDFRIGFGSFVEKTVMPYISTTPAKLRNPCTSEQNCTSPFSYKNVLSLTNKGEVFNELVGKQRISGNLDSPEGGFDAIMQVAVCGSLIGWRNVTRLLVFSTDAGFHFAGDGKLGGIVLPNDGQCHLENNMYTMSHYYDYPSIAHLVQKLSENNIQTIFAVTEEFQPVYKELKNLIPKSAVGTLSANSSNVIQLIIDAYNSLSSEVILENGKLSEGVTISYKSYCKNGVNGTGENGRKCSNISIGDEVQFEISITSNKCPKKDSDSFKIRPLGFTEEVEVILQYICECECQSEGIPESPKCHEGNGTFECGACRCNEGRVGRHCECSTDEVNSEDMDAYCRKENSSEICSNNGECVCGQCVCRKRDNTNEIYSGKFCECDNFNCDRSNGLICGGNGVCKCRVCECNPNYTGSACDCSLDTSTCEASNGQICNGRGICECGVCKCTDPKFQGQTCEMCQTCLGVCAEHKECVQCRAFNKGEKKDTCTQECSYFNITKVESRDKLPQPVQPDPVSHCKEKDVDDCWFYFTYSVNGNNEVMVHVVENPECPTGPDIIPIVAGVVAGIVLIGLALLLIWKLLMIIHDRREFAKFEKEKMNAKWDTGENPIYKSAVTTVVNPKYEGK
Sequence of Integrin alpha-4/beta-1 (P13612 whole entry): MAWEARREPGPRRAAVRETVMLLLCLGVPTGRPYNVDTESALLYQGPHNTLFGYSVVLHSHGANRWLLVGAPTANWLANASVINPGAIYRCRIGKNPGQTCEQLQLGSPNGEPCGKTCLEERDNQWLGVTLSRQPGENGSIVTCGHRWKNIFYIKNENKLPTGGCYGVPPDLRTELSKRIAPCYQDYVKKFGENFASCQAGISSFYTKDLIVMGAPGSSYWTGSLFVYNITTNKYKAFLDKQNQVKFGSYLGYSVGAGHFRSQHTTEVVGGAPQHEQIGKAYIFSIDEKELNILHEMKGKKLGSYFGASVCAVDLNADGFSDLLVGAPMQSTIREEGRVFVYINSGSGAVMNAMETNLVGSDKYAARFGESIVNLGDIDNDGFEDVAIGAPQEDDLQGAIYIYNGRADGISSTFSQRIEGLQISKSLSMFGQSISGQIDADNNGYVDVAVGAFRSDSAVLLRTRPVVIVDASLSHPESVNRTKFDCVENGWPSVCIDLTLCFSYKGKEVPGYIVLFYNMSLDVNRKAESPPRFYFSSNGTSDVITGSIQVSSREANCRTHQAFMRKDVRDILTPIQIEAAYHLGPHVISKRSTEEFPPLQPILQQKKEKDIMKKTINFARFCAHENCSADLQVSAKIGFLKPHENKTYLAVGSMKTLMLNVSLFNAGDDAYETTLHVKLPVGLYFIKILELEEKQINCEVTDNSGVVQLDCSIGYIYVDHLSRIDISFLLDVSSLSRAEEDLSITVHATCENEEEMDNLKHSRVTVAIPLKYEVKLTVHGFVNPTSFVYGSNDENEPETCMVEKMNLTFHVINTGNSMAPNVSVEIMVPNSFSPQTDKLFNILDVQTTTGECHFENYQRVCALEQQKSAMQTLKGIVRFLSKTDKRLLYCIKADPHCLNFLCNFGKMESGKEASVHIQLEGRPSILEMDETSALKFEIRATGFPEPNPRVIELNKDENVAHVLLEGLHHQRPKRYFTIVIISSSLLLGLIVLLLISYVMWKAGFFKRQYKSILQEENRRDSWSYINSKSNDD

For the compound `NC(=O)C1(NC(=O)[C@@H](CCCC(=O)O)NC(=O)[C@@H](CCCCNC(=O)/C=C/c2cccnc2)NC(=O)Cc2ccc(Nc3nc4ccccc4s3)cc2)CCCCC1`, half-maximal inhibition (IC50) required 0.0525 nM.
Compound `NC(=O)C1(NC(=O)[C@@H](CCCC(=O)O)NC(=O)[C@@H](CCCCNC(=O)/C=C/c2cccnc2)NC(=O)CCc2ccc(Nc3nc4cc(Br)ccc4[nH]3)cc2)CCCCC1` gave an IC50 of 378 nM.
The value for `NC(=O)C1(NC(=O)[C@@H](CCCC(=O)O)NC(=O)[C@@H](CCCCNC(=O)/C=C/c2cccnc2)NC(=O)c2ccc(Nc3nc4ccccc4s3)cc2)CCCCC1` was 346 nM; that for `NC(=O)C1(NC(=O)[C@H](CCCC(=O)O)NC(=O)[C@H](CCCCNC(=O)/C=C/c2cccnc2)NC(=O)Cc2ccc(Nc3nc4ccccc4[nH]3)cc2)CCCCC1` was 0.305 nM.
